Data taken from publication PMC6934184, “Selective DNA-PKcs inhibition extends the therapeutic index of localized radiotherapy and chemotherapy” (The Journal of Clinical Investigation, 2019).

Target: T1, INSRR (IRR) (Homo sapiens, UniProt P14616)
T1 construct: purchased Thermo Fisher Scientific (Life Technologies) SelectScreen
Assay: SelectScreen Z'LYTE
Assay type: biochemical
Summary of the method: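 NU5455 was profiled across the SelectScreen Broad panel of kinase activity and binding assays. Z'LYTE reactions such as CSF1R ran at apparent Km ATP, while the Adapta CAMK1 assay used ATP listed as 10. Values are given as percent.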

T1 sequence (P14616 27-1297): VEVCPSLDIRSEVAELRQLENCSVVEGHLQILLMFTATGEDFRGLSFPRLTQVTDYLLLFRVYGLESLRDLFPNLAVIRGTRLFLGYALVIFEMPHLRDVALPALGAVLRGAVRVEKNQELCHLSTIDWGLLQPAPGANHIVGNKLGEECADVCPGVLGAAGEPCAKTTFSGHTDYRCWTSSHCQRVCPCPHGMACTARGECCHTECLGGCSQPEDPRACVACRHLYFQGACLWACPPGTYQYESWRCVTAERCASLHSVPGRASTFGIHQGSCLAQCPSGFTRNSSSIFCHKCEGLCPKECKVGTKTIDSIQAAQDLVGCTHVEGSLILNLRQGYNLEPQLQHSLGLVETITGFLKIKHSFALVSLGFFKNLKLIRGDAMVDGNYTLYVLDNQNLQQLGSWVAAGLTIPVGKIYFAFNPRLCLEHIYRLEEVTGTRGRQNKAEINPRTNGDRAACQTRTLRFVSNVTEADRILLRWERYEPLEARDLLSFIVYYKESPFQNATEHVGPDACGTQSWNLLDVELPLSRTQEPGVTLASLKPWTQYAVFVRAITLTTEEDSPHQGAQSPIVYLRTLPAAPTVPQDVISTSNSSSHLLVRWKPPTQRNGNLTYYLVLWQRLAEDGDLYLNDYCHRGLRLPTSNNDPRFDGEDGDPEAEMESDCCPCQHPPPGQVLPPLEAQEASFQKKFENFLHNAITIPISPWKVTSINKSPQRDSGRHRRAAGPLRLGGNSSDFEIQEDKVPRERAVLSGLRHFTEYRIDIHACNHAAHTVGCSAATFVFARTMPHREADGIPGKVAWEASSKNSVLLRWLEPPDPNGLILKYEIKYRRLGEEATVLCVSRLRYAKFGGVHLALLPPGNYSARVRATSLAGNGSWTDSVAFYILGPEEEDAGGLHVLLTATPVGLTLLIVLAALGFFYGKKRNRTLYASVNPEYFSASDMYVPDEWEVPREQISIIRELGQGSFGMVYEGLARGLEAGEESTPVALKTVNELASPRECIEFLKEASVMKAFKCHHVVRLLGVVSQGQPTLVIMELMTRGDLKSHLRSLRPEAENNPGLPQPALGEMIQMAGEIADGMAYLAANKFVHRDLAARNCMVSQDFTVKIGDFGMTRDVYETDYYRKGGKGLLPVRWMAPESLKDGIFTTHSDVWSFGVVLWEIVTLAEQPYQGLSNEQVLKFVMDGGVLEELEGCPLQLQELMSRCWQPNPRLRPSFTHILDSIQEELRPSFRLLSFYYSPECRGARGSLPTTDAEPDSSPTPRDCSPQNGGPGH

SMILES: CN(C(=O)CN1CCOCC1)c1ccc2sc3c(-c4cccc5c(=O)cc(N6CC7CCC(C6)O7)oc45)cccc3c2c1 [NU5455]
- inhibition at 1 µM: 14.1%
